Where a name gives a salt, the structure may show the parent alone. Read-outs that look alike come from different tables or passages of the source.
Assays:
rat TAAR1 = rat TAAR1 (Rattus norvegicus (Rat), UniProt Q923Y9); assay: Radioligand binding assay on rat TAAR1
Experimental: (§1) For the construction of expression plasmids the coding sequences of human, rat and mouse TAAR1 were amplified from genomic DNA essentially as described by Lindemann et al.. The Expand High Fidelity PCR System (Roche Diagnostics) was used with 1.5 mM Mg^2+ and purified PCR products were cloned into pCR2.1-TOPO cloning vector (Invitrogen) following the instructions of the manufacturer. PCR products were subcloned into the pIRESneo2 vector (BD Clontech, Palo Alto, Calif.), and expression vectors were sequence verified before introduction in cell lines.
(§2) HEK293 cells (ATCC #CRL-1573) were cultured essentially as described by Lindemann et al. (2005). For the generation of stably transfected cell lines HEK293 cells were transfected with the pIRESneo2 expression plasmids containing the TAAR coding sequences (described above) with Lipofectamine 2000 (Invitrogen) according to the instructions of the manufacturer, and 24 hrs post transfection the culture medium was supplemented with 1 mg/ml G418 (Sigma, Buchs, Switzerland). After a culture period of about 10 d clones were isolated, expanded and tested for responsiveness to trace amines (all compounds purchased from Sigma) with the cAMP Biotrak Enzyme immunoassay (EIA) System (Amersham) following the non-acetylation EIA procedure provided by the manufacturer.
Radioligand Binding Assay on Rat TAAR1
(§3) Membrane Preparation and Radioligand Binding.
(§4) HEK-293 cells stably expressing rat TAAR1 were maintained at 37° C. and 5% CO2 in DMEM high glucose medium, containing fetal calf serum (10%, heat inactivated for 30 min at 56° C.), penicillin/streptomycin (1%), and 375 μg/ml geneticin (Gibco). Cells were released from culture flasks using trypsin/EDTA, harvested, washed twice with ice-cold PBS (without Ca^2+ and Mg^2+), pelleted at 1,000 rpm for 5 min at 4° C., frozen and stored at −80° C. Frozen pellets were suspended in 20 ml HEPES-NaOH (20 mM, pH 7.4) containing 10 mM EDTA and homogenized with a Polytron (PT 6000, Kinematica) at 14,000 rpm for 20 s. The homogenate was centrifuged at 48,000×g for 30 min at 4° C. Subsequently, the supernatant was removed and discarded, and the pellet resuspended in 20 ml HEPES-NaOH (20 mM, pH 7.4) containing 0.1 mM EDTA using the Polytron (20 s at 14,000 rpm). This procedure was repeated and the final pellet resuspended in HEPES-NaOH containing 0.1 mM EDTA and homogenized using the Polytron. Typically, aliquots of 2 ml membrane portions were stored at −80° C. With each new membrane batch the dissociation constant (Kd) was determined via a saturation curve. […] Nonspecific binding was defined as the amount of ^3[H]—(S)-4-[(ethyl-phenyl-amino)-methyl]-4,5-dihydro-oxazol-2-ylamine bound in the presence of 10 μM unlabeled ligand. All compounds were tested at a broad range of concentrations (10 pM to 10 μM) in duplicates. […] The 96 deep well plates were incubated for 1 hr at 4° C. Incubations were terminated by rapid filtration through Unifilter-96 plates (Packard Instrument Company) and glass filters GF/C (Perkin Elmer) presoaked for 1 hr in polyethylenimine (0.3%) and washed 3 times with 1 ml of cold binding buffer. After addition of 45 μl of Microscint 40 (PerkinElmer) the Unifilter-96 plate was sealed and after 1 hr the ratioactivity counted using a TopCount Microplate Scintillation Counter (Packard Instrument Company).

mouse TAAR1 = mouse TAAR1 (Mus musculus (Mouse), UniProt Q923Y8); assay: Radioligand binding assay on mouse TAAR1
Sequence of mouse TAAR1 (Q923Y8 whole entry): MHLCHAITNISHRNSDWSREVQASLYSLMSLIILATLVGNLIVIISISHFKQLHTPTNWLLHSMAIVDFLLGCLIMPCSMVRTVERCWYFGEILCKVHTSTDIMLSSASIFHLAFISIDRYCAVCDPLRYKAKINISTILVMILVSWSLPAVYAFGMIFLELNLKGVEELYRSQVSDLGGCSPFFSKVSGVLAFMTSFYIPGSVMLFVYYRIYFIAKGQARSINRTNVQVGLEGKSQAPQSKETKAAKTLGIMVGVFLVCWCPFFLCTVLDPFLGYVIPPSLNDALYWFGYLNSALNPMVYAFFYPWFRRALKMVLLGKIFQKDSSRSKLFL
Experimental: as §1, §2
Radioligand Binding Assay on Mouse TAAR1
as §3
as §4, with “expressing mouse” for “expressing rat”

[1] = rat TAAR1, HEK-293 membranes, second value of cell mouse/rat, read-out: Ki (μM) rat
[2] = mouse TAAR1, HEK-293 membranes, first value of cell mouse/rat, read-out: Ki (μM) mouse

Sequence of rat TAAR1 (Q923Y9 whole entry): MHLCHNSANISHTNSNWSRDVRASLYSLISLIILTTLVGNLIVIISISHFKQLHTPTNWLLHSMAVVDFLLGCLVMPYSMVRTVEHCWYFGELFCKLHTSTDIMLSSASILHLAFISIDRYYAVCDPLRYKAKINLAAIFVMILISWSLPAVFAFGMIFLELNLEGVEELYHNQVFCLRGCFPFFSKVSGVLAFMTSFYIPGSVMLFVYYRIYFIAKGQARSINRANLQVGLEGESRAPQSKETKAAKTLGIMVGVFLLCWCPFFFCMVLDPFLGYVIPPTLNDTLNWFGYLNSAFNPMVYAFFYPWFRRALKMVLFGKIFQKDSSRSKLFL

| Ki (rat TAAR1; [1]) [µM] | Ki (mouse TAAR1; [2]) [µM] | Structure (SMILES) | Ki (rat TAAR1; read-out: Ki (μM) rat) [µM] | Ki (rat TAAR1) [µM] | Ki (mouse TAAR1) [µM] |
| --- | --- | --- | --- | --- | --- |
| 0.0072 | 0.0056 | CCCCc1ccc(NC(=O)Nc2ccc(C3CCNC3)cc2)c(C)c1 (racemic) [Example 1, (RS)-1-(4-Butyl-2-methyl-phenyl)-3-(4-pyrrolidin-3-yl-phenyl)-urea; hydrochloride] | – | – | – |
| 0.0036 | 0.0028 | O=C(Nc1ccc(C2CCNC2)cc1)Nc1ccc(Cl)cc1Cl (racemic) [Example 7, (RS)-1-(2,4-Dichloro-phenyl)-3-(4-pyrrolidin-3-yl-phenyl)-urea hydrochloride] | – | – | – |
| – | – | O=C(Nc1ccc(C2CCNC2)cc1)Oc1ccccc1 (racemic) [Example 11, (RS)-(4-Pyrrolidin-3-yl-phenyl)-carbamic acid phenyl ester hydrochloride] | – | 0.0315 | 0.0065 |
| 0.0995 | 0.008 | O=C(Nc1ccc(C2CCNC2)cc1)c1ccccc1 (racemic) [Example 13, (RS)—N-(4-Pyrrolidin-3-yl-phenyl)-benzamide hydrochloride] | – | – | – |
| – | – | O=C(Nc1ccc(C2CCNC2)cc1)Oc1ccc(F)cc1 (racemic) [Example 15, (RS)-(4-Pyrrolidin-3-yl-phenyl)-carbamic acid 4-fluoro-phenyl ester hydrochloride] | – | 0.0081 | 0.0021 |
| 0.0363 | 0.0083 | O=C(Cc1ccc(Cl)cc1)Nc1ccc(C2CCNC2)cc1 (racemic) [Example 17, (RS)-2-(4-Chloro-phenyl)-N-(4-pyrrolidin-3-yl-phenyl)-acetamide hydrochloride] | – | – | – |
| 0.0036 | 0.0011 | O=C(Nc1ccc(C2CCNC2)cc1)c1ccc(C(F)(F)F)cc1 (racemic) [Example 18, (RS)—N-(4-Pyrrolidin-3-yl-phenyl)-4-trifluoromethyl-benzamide hydrochloride] | – | – | – |
| – | – | CN(C(=O)Oc1ccccc1)c1ccc(C2CCNC2)cc1 (racemic) [Example 22, (RS)-Methyl-(4-pyrrolidin-3-yl-phenyl)-carbamic acid phenyl ester] | – | 2.37 | 0.526 |
| – | – | O=C(Nc1ccc(C2CCNC2)cc1)Oc1ccc(Cl)cc1 (racemic) [Example 23, (RS)-(4-Pyrrolidin-3-yl-phenyl)-carbamic acid 4-chloro-phenyl ester hydrochloride] | – | 0.0025 | 0.0022 |
| 0.0015 | 0.0013 | O=C(Nc1ccc(C2CCNC2)cc1)Nc1ccc(C(F)(F)F)cc1 (racemic) [Example 27, (RS)-1-(4-Pyrrolidin-3-yl-phenyl)-3-(4-trifluoromethyl-phenyl)-urea hydrochloride] | – | – | – |
| 0.0858 | 0.0005 | CN1CCC(c2ccc(NC(=O)c3ccc(Cl)cc3)cc2)C1 (racemic) [Example 32, (RS)-4-Chloro-N-[4-(1-methyl-pyrrolidin-3-yl)-phenyl]-benzamide] | – | – | – |
| 0.0606 | 0.0407 | CCC(C(=O)Nc1ccc(C2CCNC2)cc1)c1ccccc1 (racemic) [Example 38, (RS)-2-Phenyl-N—((RS)-4-pyrrolidin-3-yl-phenyl)-butyramide] | – | – | – |
| 0.0354 | 0.0033 | O=C(Nc1ccc(C2CCNC2)cc1)c1ccc(Cl)cn1 (racemic) [Example 42, (RS)-5-Chloro-pyridine-2-carboxylic acid (4-pyrrolidin-3-yl-phenyl)-amide hydrochloride] | – | – | – |
| 0.0242 | 0.0041 | O=C(Nc1ccc(C2CCNC2)cc1)c1ccc(Cl)nc1 (racemic) [Example 43, (RS)-6-Chloro-pyridine-3-carboxylic acid (4-pyrrolidin-3-yl-phenyl)-amide hydrochloride] | – | – | – |
| 0.0022 | 0.0013 | O=C(Nc1ccc(C2CCNC2)cc1)Nc1ccc(Cl)cn1 (racemic) [Example 44, (RS)-1-(5-Chloro-pyridin-2-yl)-3-(4-pyrrolidin-3-yl-phenyl)-urea hydrochloride] | – | – | – |

| Structure (SMILES) | Ki (rat TAAR1; [1]) [µM] | Ki (mouse TAAR1; [2]) [µM] | Ki (rat TAAR1; read-out: Ki (μM) rat) [µM] | Ki (rat TAAR1) [µM] | Ki (mouse TAAR1) [µM] |
| --- | --- | --- | --- | --- | --- |
| O=C(Nc1ccc(C2CCNC2)cc1)Nc1ccc(Cl)c(Cl)c1 (racemic) [Example 3, (RS)-1-(3,4-Dichloro-phenyl)-3-(4-pyrrolidin-3-yl-phenyl)-urea hydrochloride] | 0.0016 | 0.0013 | – | – | – |
| O=C(Nc1ccc(Cl)cc1)Nc1ccc(C2CCNC2)cc1 (racemic) [Example 5, (RS)-1-(4-Chloro-phenyl)-3-(4-pyrrolidin-3-yl-phenyl)-urea hydrochloride] | 0.0027 | 0.0015 | – | – | – |
| O=C(Nc1ccccc1)Nc1ccc(C2CCNC2)cc1 (racemic) [Example 6, (RS)-1-Phenyl-3-(4-pyrrolidin-3-yl-phenyl)-urea hydrochloride] | – | 0.0032 | 0.0295 | – | – |
| O=C(Nc1ccc(C2CCNC2)cc1)Nc1cccc(Cl)c1 (racemic) [Example 8, (RS)-1-(3-Chloro-phenyl)-3-(4-pyrrolidin-3-yl-phenyl)-urea hydrochloride] | 0.0044 | 0.0015 | – | – | – |
| O=C(Nc1ccc(C2CCNC2)cc1)c1ccc(Cl)cc1 (racemic) [Example 16, (RS)-4-Chloro-N-(4-pyrrolidin-3-yl-phenyl)-benzamide hydrochloride] | 0.0043 | 0.0007 | – | – | – |
| O=C(Nc1ccc(C2CCNC2)cc1)c1ccc(Cl)cc1Cl (racemic) [Example 19, (RS)-2,4-Dichloro-N-(4-pyrrolidin-3-yl-phenyl)-benzamide hydrochloride] | 0.0189 | 0.0035 | – | – | – |
| O=C(Nc1ccc(C2CCNC2)cc1)c1cccc(Cl)c1 (racemic) [Example 20, (RS)-3-Chloro-N-(4-pyrrolidin-3-yl-phenyl)-benzamide hydrochloride] | 0.0077 | 0.0005 | – | – | – |
| O=C(Nc1ccc(C2CCNC2)cc1)Nc1ccc(Cl)nc1 (racemic) [Example 26, (RS)-1-(6-Chloro-pyridin-3-yl)-3-(4-pyrrolidin-3-yl-phenyl)-urea hydrochloride] | 0.0279 | 0.0112 | – | – | – |
| O=C(Nc1ccc(C2CCN(Cc3ccccc3)C2)cc1)c1ccc(Cl)cc1 (racemic) [Example 34, (RS)—N-[4-(1-Benzyl-pyrrolidin-3-yl)-phenyl]-4-chloro-benzamide] | 0.214 | 0.0269 | – | – | – |
| O=C(Nc1ccc(OC2CCNC2)cc1)c1ccc(Cl)cc1 (racemic) [Example 39, (RS)-4-Chloro-N-[4-(pyrrolidin-3-yloxy)-phenyl]-benzamide hydrochloride] | 0.0139 | 0.0007 | – | – | – |

Source: patent US9452980B2, “Substituted benzamides” (Hoffmann-La Roche Inc., priority 2009, dated 2016)
